Experiment [1] concerns MRSA clinical isolate 1694. The following applies: MRSA clinical isolate 1694 (blood); broth microdilution, MHB, 24 h.
Protocol: (§1) Antimicrobial activity of peptides was analyzed through determination of MIC parameter according to the standard microdilution technique performed on 96-well plates. Mueller-Hinton broth (MHB, Sigma Aldrich, St. Louis, MO, USA) was used as the working medium for all bacterial strains. Briefly, inoculum was prepared from freshly grown cultures of bacteria being at their exponential phase of growth. Each well of 96-well plates containing 100 µL of serially diluted peptides in PBS at desired concentration was inoculated with 100 µL of 10^5 CFU/mL of bacterial suspension. Then plates were incubated overnight 37 °C and absorbance was read at 600 nm after 24 h. Wells without peptide were treated as the positive control, while uninoculated MHB was defined as the negative control. All measurements were run in triplicates.
Experiment [2] has as its system MRSA clinical isolate 7718. The following applies: MRSA clinical isolate 7718 (blood); broth microdilution, MHB, 24 h.
Protocol: as §1
The subject of experiment [3] is MRSA clinical isolate 2872cv. Conditions: MRSA clinical isolate 2872cv (blood); broth microdilution, MHB, 24 h.
Protocol: as §1
A further experiment has as its system S. aureus USA300 biofilm. The experiment can be described thus: Disruption of mature biofilm, crystal violet. The following applies: mature biofilm (24 h) of USA300, peptide at 4 × MIC (160 μg/mL), n = 3.
Experiment [4] deals with S. epidermidis ATCC 12228. Conditions: S. epidermidis ATCC 12228; broth microdilution, MHB, 37 °C, 24 h, triplicates.
Protocol: as §1
For experiment [5], the system named is MRSA clinical isolate 56A1. The following applies: MRSA clinical isolate 56A1 (skin); broth microdilution, MHB, 24 h.
Protocol: as §1
Experiment [6] relates to S. aureus USA300 cytoplasmic membrane. Briefly: Sytox green uptake (membrane permeabilization). Format: cell-based, Staphylococcus aureus. The protocol:
The USA300 strain was grown to mid-logarithmic phase at 37 °C, washed, and resuspended in 10 mM sodium phosphate buffer (pH 7.2) Bacterial cells were then incubated with 1 µM Sytox green for 15 min in the dark. After the addition of desired concentration of peptide conjugate (5–100 µg/mL), the time-dependent increases in fluorescence caused by the binding of the cationic dye to intracellular DNA were monitored (excitation at 485 nm and emission at 520 nm).

Experiment [7] concerns MRSA clinical isolate 4187. The following applies: MRSA clinical isolate 4187 (blood); broth microdilution, MHB, 24 h.
Protocol: as §1

Results on one compound are retold here after publication PMC6801822, “The Bactericidal Activity of Temporin Analogues Against Methicillin Resistant Staphylococcus aureus” (International Journal of Molecular Sciences, 2019).

Values after ≈ are worked out from the molar mass of the structure shown. Non-standard residues stand in square brackets, D forms with d. Residues, ends and D or L forms follow the SMILES beside them. AEEA = NCCOCCOCC(=O)O

Protocol for S. aureus USA300 biofilm: USA300 strain was grown in 96-well plates at 37 °C for 24 h to form biofilm. Peptide was added at desired concentrations and plates were incubated for additional 24 h. […] Mean ± SD n = 3. ** p < 0.0151; one-way ANOVA.
Briefly, USA300 strain grown overnight was diluted 1:100 in TSB + 1% glucose and incubated in 96-well plates at 37 °C for 24 h. After removing media, wells were rinsed with PBS to remove planktonic bacteria before re-filling wells with fresh MHB. Peptide conjugates were added at desired concentrations and plates were incubated at 37 °C for 24 h. After incubation, wells were washed and biofilms were stained with 0.5% (w/v) crystal violet for 30 min. The dye was solubilized with ethanol (95%) and the OD of biofilms was measured.

Take `CC[C@H](C)[C@H](NC(=O)COCCOCCNC(=O)[C@H](CCCNC(=N)N)NC(=O)[C@H](CC(C)C)NC(=O)[C@H](Cc1ccccc1)NC(=O)CNC(=O)[C@@H](C)NC(=O)[C@@H](N)Cc1ccc(O)cc1)C(=O)N[C@@H](CCCCN)C(=O)N[C@@H](CCCCN)C(=O)N[C@H](C(=O)N[C@@H](CC(C)C)C(=O)N[C@@H](CO)C(=O)N[C@H](CCCCN)C(=O)N[C@H](C(=O)N[C@@H](CCCCN)C(=O)N[C@@H](CCCCN)C(=O)N[C@@H](CC(C)C)C(=O)N[C@@H](CC(C)C)C(N)=O)[C@@H](C)CC)[C@@H](C)CC` [DAL-PEG-DK5] (H-Y[dA]GFLR[AEEA]IKKILS[dK]IKKLL-NH2; N-terminus assumed): the MIC is 70 µg/mL (≈ 30.7 µM) in experiment [1]; 50 µg/mL (≈ 22 µM) in experiment [2]; 40 µg/mL (≈ 17.6 µM) in experiment [3]; 60 µg/mL (≈ 26.4 µM) in experiment [4]; 40 µg/mL (≈ 17.6 µM) in experiment [5]; 40 µg/mL (≈ 17.6 µM) in experiment [7]. Further, the “reduction of biofilm mass” value in the experiment with S. aureus USA300 biofilm is given as 50%. Also, the “permeabilization of the cell membrane” value in experiment [6] (5 min post-treatment, peptide 10 μg) was “marked permeabilization of the cell membrane”. For the same compound, the “concentration at which permeabilization of the bacterial membrane reached a plateau” value in experiment [6] (USA300, 1 μM Sytox green, 10 mM sodium phosphate buffer pH 7.2, up to 60 min) is 25 µg/mL.
